According to the NIST ThermoML archive (doi:10.1021/je400056z):

Assay: xn = mol fraction of the nth substance listed
Settings: Liquid, Vibrating tube method

CCCCCCC [heptane] + O=C=O
Settings	mass density [kg/m3]
362.09 K, 24866 kPa, x2 = 0.7514	690.92
362.19 K, 7007 kPa, x2 = 0.3148	638.82
362.19 K, 8020 kPa, x2 = 0.3148	641.6
362.19 K, 9013 kPa, x2 = 0.3148	644.14
362.19 K, 10009 kPa, x2 = 0.3148	646.61
362.19 K, 11005 kPa, x2 = 0.3148	648.99
362.19 K, 12009 kPa, x2 = 0.3148	651.27
362.19 K, 12998 kPa, x2 = 0.3148	653.42
362.19 K, 13999 kPa, x2 = 0.3148	655.52
362.19 K, 15011 kPa, x2 = 0.3148	657.61
362.19 K, 16007 kPa, x2 = 0.3148	659.59
362.19 K, 17005 kPa, x2 = 0.3148	661.48
362.19 K, 18002 kPa, x2 = 0.3148	663.3
362.19 K, 18999 kPa, x2 = 0.3148	665.1
362.19 K, 20006 kPa, x2 = 0.3148	666.9
362.19 K, 21004 kPa, x2 = 0.3148	668.62
362.19 K, 22001 kPa, x2 = 0.3148	670.29
362.19 K, 23006 kPa, x2 = 0.3148	671.94
362.19 K, 24001 kPa, x2 = 0.3148	673.55
362.19 K, 25007 kPa, x2 = 0.3148	675.13
362.25 K, 17354 kPa, x2 = 0.9496	518.07
362.25 K, 17995 kPa, x2 = 0.9496	536.06
362.25 K, 19006 kPa, x2 = 0.9496	561.22
362.25 K, 20005 kPa, x2 = 0.9496	583.24
362.25 K, 21002 kPa, x2 = 0.9496	602.87
362.25 K, 21997 kPa, x2 = 0.9496	620.08
362.25 K, 22998 kPa, x2 = 0.9496	635.9
362.25 K, 24005 kPa, x2 = 0.9496	650.25
362.25 K, 24186 kPa, x2 = 0.9496	652.75
362.38 K, 4014 kPa, x2 = 0.0218	629.41
362.38 K, 5003 kPa, x2 = 0.0218	630.95
362.38 K, 6009 kPa, x2 = 0.0218	632.44
362.38 K, 7003 kPa, x2 = 0.0218	633.95
362.38 K, 8010 kPa, x2 = 0.0218	635.37
362.38 K, 9008 kPa, x2 = 0.0218	636.85
362.38 K, 9009 kPa, x2 = 0.5085	638.92
362.38 K, 10008 kPa, x2 = 0.5085	643.09
362.38 K, 10010 kPa, x2 = 0.0218	638.18
362.38 K, 10998 kPa, x2 = 0.5085	646.98
362.38 K, 11002 kPa, x2 = 0.0218	639.5
362.38 K, 12004 kPa, x2 = 0.0218	640.84
362.38 K, 12009 kPa, x2 = 0.5085	650.8
362.38 K, 13001 kPa, x2 = 0.0218	642.13
362.38 K, 13001 kPa, x2 = 0.5085	654.31
362.38 K, 14002 kPa, x2 = 0.5085	657.71
362.38 K, 14009 kPa, x2 = 0.0218	643.41
362.38 K, 15004 kPa, x2 = 0.0218	644.62
362.38 K, 15013 kPa, x2 = 0.5085	660.97
362.38 K, 16005 kPa, x2 = 0.0218	645.88
362.38 K, 16008 kPa, x2 = 0.5085	664.05
362.38 K, 16999 kPa, x2 = 0.0218	647.06
362.38 K, 17005 kPa, x2 = 0.5085	667.09
362.38 K, 18001 kPa, x2 = 0.0218	648.25
362.38 K, 18005 kPa, x2 = 0.5085	670.02
362.38 K, 18994 kPa, x2 = 0.0218	649.38
362.38 K, 19006 kPa, x2 = 0.5085	672.76
362.38 K, 19999 kPa, x2 = 0.0218	650.56
362.38 K, 20009 kPa, x2 = 0.5085	675.44
362.38 K, 21006 kPa, x2 = 0.0218	651.69
362.38 K, 21006 kPa, x2 = 0.5085	678.11
362.38 K, 22002 kPa, x2 = 0.0218	652.83
362.38 K, 22010 kPa, x2 = 0.5085	680.57
362.38 K, 23002 kPa, x2 = 0.5085	683.07
362.38 K, 23003 kPa, x2 = 0.0218	653.91
362.38 K, 23995 kPa, x2 = 0.0218	655.01
362.38 K, 23997 kPa, x2 = 0.5085	685.41
362.38 K, 25005 kPa, x2 = 0.0218	656.12
362.38 K, 25008 kPa, x2 = 0.5085	687.82
